From ChEMBL document CHEMBL1124557, “Pentadienyl carboxamide derivatives as antagonists of platelet-activating factor” (J Med Chem, 1989)

What was measured:
Cavia porcellus [1] = assay: Ability to prevent PAF-induced bronchoconstriction in guinea pig when administered at a dose of 1 mg/kg intravenously; assay type: functional; conditions: route intravenous
[2] = target: Platelet-activating factor receptor (Cavia porcellus) (UniProt P21556); assay: Ability to prevent PAF-induced bronchoconstriction in guinea pig when administered intravenously; assay type: functional
[3] = target: Platelet-activating factor receptor (Cavia porcellus) (UniProt P21556); assay: Ability to prevent PAF-induced bronchoconstriction in guinea pig 2 hr after administration (50 mg/kg perorally); assay type: functional, organism-based
Cavia porcellus [4] = assay: Ability to prevent PAF-induced bronchoconstriction in guinea pig 6 hr following 50 mg/kg p.o. administration.; assay type: functional; conditions: route oral
Cavia porcellus [5] = assay: Inhibition of PAF-induced bronchoconstriction in guinea pig 2 hr after p.o. administration.; assay type: functional; conditions: po, read-out: ID50 (the source's name)
Cavia porcellus [6] = assay: Ability to prevent PAF-induced bronchoconstriction in guinea pig when administered dose 0.5 mg/kg intravenously; assay type: functional; conditions: route intravenous

Platelet-activating factor receptor (Cavia porcellus), sequence (P21556 whole entry): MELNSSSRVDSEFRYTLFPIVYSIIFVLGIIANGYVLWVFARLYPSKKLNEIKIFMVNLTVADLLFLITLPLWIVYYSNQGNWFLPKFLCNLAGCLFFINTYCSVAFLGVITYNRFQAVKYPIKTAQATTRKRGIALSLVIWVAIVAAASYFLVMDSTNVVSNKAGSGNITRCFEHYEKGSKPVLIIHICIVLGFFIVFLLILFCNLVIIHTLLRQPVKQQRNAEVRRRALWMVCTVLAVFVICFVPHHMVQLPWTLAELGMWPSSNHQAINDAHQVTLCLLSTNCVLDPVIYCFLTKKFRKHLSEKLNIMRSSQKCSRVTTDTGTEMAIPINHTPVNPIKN

Structure (SMILES)	inhibition in vivo at 1 mg/kg (Cavia porcellus [1]) [%]	ID50 [2] [mg/kg]	inhibition [3] [%]	inhibition in vivo at 50 mg/kg (Cavia porcellus [4]) [%]	ED50 (Cavia porcellus [5]) [mg/kg]	inhibition in vivo at 0.5 mg/kg (Cavia porcellus [6]) [%]
COc1ccc(C(=C/C=C/C(=O)NCCCOc2cccnc2)c2ccc(OC)cc2)cc1	43	–	–	–	–	–
CCC[C@H](CCCc1cccnc1)NC(=O)/C=C/C=C(c1ccc(OC)cc1)c1ccc(OC)cc1	24	–	–	–	–	–
COc1ccc(C(=C/C=C/C(=O)N[C@@H](CCCc2cccnc2)C2CC2)c2ccc(OC)cc2)cc1	98	0.2	99	82	6	–
COc1ccc(C(=C/C=C/C(=O)NCCOCc2cccnc2)c2ccc(OC)cc2)cc1	48	–	–	–	–	–
COc1ccc(/C(=C/C=C/C(=O)N[C@H](C)CCCc2cccnc2)c2ccccc2)cc1	89	0.16	95	53	–	–
COc1ccc(/C(C)=C/C=C/C(=O)N[C@H](C)CCCc2cccnc2)cc1	42	–	–	–	–	–
CCCCCCCC/C(=C\C=C\C(=O)N[C@H](C)CCCc1cccnc1)c1ccc(OC)cc1	98	0.1	84	27	13	–
COc1ccc(C(=C/C=C/C(=O)N[C@H](C)CCCc2cccnc2)c2ccc(OC)c(OC)c2)cc1OC	99	0.14	67	2	26	–
O=C(/C=C\C=C(c1ccccc1)c1ccccc1)NCCCCc1cccnc1	–	–	–	–	–	-1
CCCC[C@H](CCCc1cccnc1)NC(=O)/C=C/C=C(c1ccc(OC)cc1)c1ccc(OC)cc1	42	–	–	–	–	–
CCCC/C(=C\C=C\C(=O)N[C@H](C)CCCc1cccnc1)c1ccc(OC)cc1	99	0.68	98	69	12	–
COc1cccc(C(=C/C=C/C(=O)N[C@H](C)CCCc2cccnc2)c2cccc(OC)c2)c1	88	0.21	86	12	29	–
COc1ccc(/C(=C/C=C/C(=O)N[C@H](C)CCCc2cccnc2)C(C)C)cc1	89	0.41	71	20	30	–
O=C(C=C(c1ccccc1)c1ccccc1)NCCCCc1cccnc1	–	0.58	28	–	–	66
COc1ccc(C(=C/C=C/C(=O)N[C@@H](C)CCCc2cccnc2)c2ccc(OC)cc2)cc1	59	0.84	90	56	29	–
COc1ccc(C(=C/C=C/C(=O)N[C@@H](CCCc2cccnc2)C(C)C)c2ccc(OC)cc2)cc1	87	0.43	57	–	26	–
O=C(/C=C/C=C(c1ccc(Cl)cc1)c1ccc(Cl)cc1)NCCCCc1cccnc1	95	0.18	54	–	50	–
COc1ccc(C(=C/C=C/C(=O)NCCCCc2cccnc2)c2ccc(OC)cc2)cc1	92	0.25	82	71	12	–
CC/C(=C\C=C\C(=O)N[C@H](C)CCCc1cccnc1)c1ccc(OC)cc1	72	0.68	84	9	35	–
COc1cccc(C(=C/C=C/C(=O)N[C@@H](C)CCCc2cccnc2)c2cccc(OC)c2)c1	36	–	10	–	–	–
O=C(CCCCC=C(c1ccccc1)c1ccccc1)NCCCCc1cccnc1	–	–	–	–	–	15
COc1ccc(C(=C/C=C/C(=O)NC(C)(C)CCCc2cccnc2)c2ccc(OC)cc2)cc1	97	0.27	54	–	55	–
COc1ccc(/C(=C\C=C\C(=O)N[C@H](C)CCCc2cccnc2)c2ccccc2)cc1	74	0.5	0	–	–	–
COc1ccc(C(=C/C=C/C(=O)Nc2ccc(Cc3cccnc3)cc2)c2ccc(OC)cc2)cc1	3	–	–	–	–	–
C[C@@H](CCCc1cccnc1)NC(=O)/C=C/C=C(c1ccc(F)cc1)c1ccc(F)cc1	21	–	–	–	–	–
COc1cccc(/C(=C/C=C/C(=O)NCCCCc2cccnc2)c2cccc(F)c2)c1	90	0.25	1	–	–	–
COc1ccc(/C(=C/C=C/C(=O)N[C@H](C)CCCc2cccnc2)C2CCCCC2)cc1	73	0.21	97	12	10	–
